Assay results published in US20230414701A1, “COMPOSITION FOR PREVENTING, AMELIORATING, OR TREATING COGNITIVE DYSFUNCTION DISEASE, COMPRISING PEPTIDE HAVING SYNAPTIC PLASTICITY CONTROL FUNCTION” (UIF (University Industry Foundation), Yonsei University, priority 2020, published 2023).

Experiments:
ICR mouse models = assay: Y-maze behavioral experiment, scopolamine-induced memory loss; assay type: in vivo; settings: 20 mpK intravenous twice for one week, then scopolamine 1 mpK i.p. 30 minutes before test; 7-week-old male ICR mice; FIG. 8
Method: In Example 6-1, it was confirmed that MIC-1 can enhance the expression level of the PSD-95 protein known to be associated with cognitive function, and based on this, a behavioral experiment for mouse models was designed. Specifically, among ICR mouse models, 7-week-old male mouse models were used and divided into a control and two experimental groups (scopolamine-treated group and group administered MIC-1 and then treated with scopolamine) to perform the experiment.
MIC-1 was administered into a mouse twice via intravenous administration at 20 mpK for one week. […] Therefore, to induce such memory loss, 30 minutes before the Y-maze behavioral experiment, scopolamine was intraperitoneally administered at 1 mpK to the experimental groups, resulting in memory deterioration.

CCNY protein = CCNY protein (Homo sapiens, UniProt Q8ND76); assay: ELISA of binding capacity of peptides to CCNY; settings: treated at 10, 100 or 1000 μg/mL; CCNY immobilized on plate; FIG. 5
Sequence of CCNY protein (Q8ND76 whole entry, species assumed): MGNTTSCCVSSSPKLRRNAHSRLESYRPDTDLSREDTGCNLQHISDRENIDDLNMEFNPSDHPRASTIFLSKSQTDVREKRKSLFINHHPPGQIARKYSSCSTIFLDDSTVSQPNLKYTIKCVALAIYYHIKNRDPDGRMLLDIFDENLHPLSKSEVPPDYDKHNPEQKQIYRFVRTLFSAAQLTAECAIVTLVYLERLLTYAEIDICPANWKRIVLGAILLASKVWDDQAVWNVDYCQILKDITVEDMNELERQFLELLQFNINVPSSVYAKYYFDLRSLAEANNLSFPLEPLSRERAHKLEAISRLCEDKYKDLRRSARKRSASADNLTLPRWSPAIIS
Method: To examine which of MIC-1 and cyclo MIC-1 according to the present invention easily binds to CCNY, the present inventors conducted an experiment using ELISA. To this end, CCNY was immobilized on a plate, MIC-1 and cyclo MIC-1 were treated at 10, 100 or 1000μg/mL, biotin was bound to the MIC-1 and cyclo MIC-1, and then the optical density of HRP was measured after treating streptavidin-HRP.

PSD-95 protein = assay: Western blotting of PSD-95 protein expression in Aβ42-treated cells; assay type: cell-based; settings: FIG. 7
Method: To identify what role MIC-1 plays in improving the cognitive function of MIC-1 according to the present invention, the present inventors, as shown in Example 5, an experiment was performed as follows. Specifically, the change in expression level of the PSD-95 protein known to play an important role in cognitive function was analyzed through Western blotting using a 12% acrylamide gel. For example, it is known that, when cells are treated with Aβ42, compared to normal cells, the amount of PSD-95 protein decreases and cognitive function decreases, resulting in deterioration of memory.

[1] = test system: hippocampal tissue section from APP/PS1 Alzheimer's disease animal model; assay: fEPSP amplitude (long-term potentiation) in hippocampal tissue sections; set-up: species or system mouse; settings: 1 μM, 1 hour and 40 minutes, compared to control peptide material; FIG. 6
Method: Specifically, the brain was extracted from an APP/PS1 Alzheimer's disease animal model, and then transferred to a 4° C. sucrose-artificial cerebrospinal fluid solution (195.5 sucrose, 2.5 KC1, 1 NaH2PO4, 32.5 NaHCO3, 11 glucose, 2 NaPyruvate, 1 NaL-ascorbate, 5 MgSO4, 0.5 CaCl2 (95% O2/5% CO2). Subsequently, brain tissue was cut into coronal sections (400 μm) using a microtome, a hippocampal tissue section was transferred to a 35° C. artificial cerebrospinal fluid solution (128.5 NaCl2, 2.5 KCl, 1 NaH2PO4, 21.7 NaHCO3, 11 glucose, 2 NaPyruvate, 1 NaL-ascorbate, 5 MgSO4, 1 CaCl2 (95% O2/5% CO2)) and incubated for 30 minutes to restore the function of the tissue. Subsequently, an experiment was performed for 1 hour and 40 minutes while flowing MIC-1 according to the present invention at a concentration of 1 μM from the beginning until the end of the experiment using gravity, and then the amplitude of field excitatory postsynaptic potential (fEPSP) was measured.

## MIC-1: Peptide of SEQ ID NO: 1 (PFTAIRE sequence of Cdk14) in which both termini are modified (Ac-PFTAIRE-NH2)
ICR mouse models
  alternation (memory) in Y-maze: the memory is improved up to the control level
CCNY protein
  binding to the CCNY protein (ELISA, optical density of HRP): can remarkably bind to the CCNY protein
PSD-95 protein
  level of the PSD-95 protein: the level of the PSD-95 protein is increased
[1]
  fEPSP amplitude: the fEPSP amplitude increases
